According to patent publication US20200017467A1, “NOVEL TRIAZOLE DERIVATIVES” (BAYER CROPSCIENCE AKTIENGESELLSCHAFT, priority 2017, published 2020):

Tests used:
Septoria tritici [1] = assay: Example F-B: in vivo curative Septoria tritici test (wheat); details: Zymoseptoria tritici, 504 h, sprayed 48 hours after inoculation, evaluated 21 days after inoculation, read-out: Efficacy in % Example F-B
Experimental: Example F: In Vivo Septoria tritici Test (Wheat); Comparison of Pyridinyloxy-Pyridyl Compounds According to the Invention Vs. Compounds Known from WO-A 2010/146116 [table] To produce a suitable preparation of active compound, 1 part by weight of active compound or active compound combination is mixed with the stated amounts of solvent and emulsifier, and the concentrate is diluted with water to the desired concentration. Example F-B: In Vivo Curative Septoria tritici Test (Wheat) To test for curative activity, young plants are inoculated with a spore suspension of Septoria tritici and remain for 48 hours in an incubation cabinet at a temperature of approximately 20° C. and a relative atmospheric humidity of approximately 100%. 48 hours after the incubation, the plants are sprayed with the preparation of active compound or active compound combination at the stated rate of application. After application the plants remain for 60 hours at a temperature of approximately 15° C. in a translucent incubation cabinet at a relative atmospheric humidity of approximately 100%. Afterwards, the plants are placed in the greenhouse at a temperature of approximately 15° C. and a relative atmospheric humidity of approximately 80%. The test is evaluated 21 days after the inoculation. 0% means an efficacy which corresponds to that of the untreated control, while an efficacy of 100% means that no disease is observed.

Septoria tritici [2] = assay: Example F-C: in vivo 5 days preventive Septoria tritici test (wheat); details: Zymoseptoria tritici, 504 h, inoculated 5 days after spraying, evaluated 21 days after inoculation, read-out: Efficacy in % Example F-C
Experimental: Example F: In Vivo Septoria tritici Test (Wheat); Comparison of Pyridinyloxy-Pyridyl Compounds According to the Invention Vs. Compounds Known from WO-A 2010/146116 [table] To produce a suitable preparation of active compound, 1 part by weight of active compound or active compound combination is mixed with the stated amounts of solvent and emulsifier, and the concentrate is diluted with water to the desired concentration. Example F-C: In Vivo 5 Days Preventive Septoria tritici Test (Wheat) To test for preventive and long-lasting activity, young plants are sprayed with a preparation of active compound or active compound combination at the stated rate of application. After the spray coating has been dried, the plants are placed in the greenhouse at a temperature of approximately 15° C. and a relative atmospheric humidity of approximately 80%. 5 days later the plants are sprayed with a spore suspension of Septoria tritici. The plants remain for 48 hours in an incubation cabinet at approximately 20° C. and a relative atmospheric humidity of approximately 100% and afterwards for 60 hours at approximately 15° C. in a translucent incubation cabinet at a relative atmospheric humidity of approximately 100%. Then the plants are placed in the greenhouse at a temperature of approximately 15° C. and a relative atmospheric humidity of approximately 80%. The test is evaluated 21 days after the inoculation. 0% means an efficacy which corresponds to that of the untreated control, while an efficacy of 100% means that no disease is observed.

Septoria tritici [3] = assay: Example F-A: in vivo preventive Septoria tritici test (wheat); details: Zymoseptoria tritici, 504 h, evaluated 21 days after inoculation, read-out: Efficacy in % Example F-A
Experimental: Example F: In Vivo Septoria tritici Test (Wheat); Comparison of Pyridinyloxy-Pyridyl Compounds According to the Invention Vs. Compounds Known from WO-A 2010/146116 [table] To produce a suitable preparation of active compound, 1 part by weight of active compound or active compound combination is mixed with the stated amounts of solvent and emulsifier, and the concentrate is diluted with water to the desired concentration. Example F-A: In Vivo Preventive Septoria tritici Test (Wheat) To test for preventive activity, young plants are sprayed with the preparation of active compound or active compound combination at the stated rate of application. After the spray coating has been dried, the plants are sprayed with a spore suspension of Septoria tritici. The plants remain for 48 hours in an incubation cabinet at approximately 20° C. and a relative atmospheric humidity of approximately 100% and afterwards for 60 hours at approximately 15° C. in a translucent incubation cabinet at a relative atmospheric humidity of approximately 100%. The plants are placed in the greenhouse at a temperature of approximately 15° C. and a relative atmospheric humidity of approximately 80%. The test is evaluated 21 days after the inoculation. 0% means an efficacy which corresponds to that of the untreated control, while an efficacy of 100% means that no disease is observed.

Work on `Clc1ccc(Oc2cc(Cl)c(C3(Cn4cncn4)OCCO3)cn2)cc1` [reference compound] yielded a pest or weed control at 500 ppm (Septoria tritici [1]) of 89%, a pest or weed control at 500 ppm (Septoria tritici [2]) of 80% and a pest or weed control at 500 ppm (Septoria tritici [3]) of 89%.
